Values of other authors as cited in patent US20100003224A1, “Combination Therapy” (GENZYME CORPORATION, priority 2006, published 2010).

What was measured:
[1] = test system: progenitor cells; conditions: single agent
[2] = test system: white blood cell counts; conditions: WO 00/45814
[3] = test system: collagen-induced arthritis; conditions: mice
[4] = test system: pre-B-ALL cells; conditions: in vitro
[5] = test system: pre-B-ALL cells; conditions: in vitro; remark: listed apart in the source
[6] = test system: multiple sclerosis; conditions: in vivo

For `c1cc(CN2CCCNCCNCCCNCC2)ccc1CN1CCCNCCNCCCNCC1` [AMD3100, 1,1′-[1,4-phenylene-bis(methylene)]-bis-1,4,8,11-tetraazacyclotetradecane], the “mobilization of progenitor cells” value [1] is listed as “mobilizes progenitor cells”, the “white blood cell counts” value [2] is listed as “elevate white blood cell counts” and the “effects in collagen-induced arthritis models” value [3] is listed as “protective effects”. The “SDF-1 induced chemotaxis of pre-B-ALL cells into bone marrow stroma layers” value [4] was “blocked” and the “cytotoxic and antiproliferative effects of vincristine and dexamethasone” value [5] was “enhanced”.

For “natalizumab: humanized monoclonal antibody against α4 (anti-VLA-4 antibody)”, the “efficacy in the treatment of multiple sclerosis” value [6] is listed as “demonstrated efficacy”.
